According to patent US6432403B1, “Antibodies to polypeptides having prenylcysteine carboxyl methlytransferase activity or inhibiting activity” (New York University, priority 1997, dated 2002):
Blank lines part the entries; values can stand above or below the compound they belong to.

Legend:
human pcCMT [1] = target: T1, human pcCMT (Homo sapiens, UniProt O60725); assay: Carboxyl methylation of Rho GTPases by COS-1 cell membranes expressing human pcCMT (S-adenosyl-L-[methyl-3H]methionine labeling, SDS-PAGE, fluorography); type: biochemical; settings: HL60 pcCMT-transfected COS-1 cell membranes; 10 μM
T1 construct: The 3.6-kb full-length HL60 pcCMT cDNA and an 852-bp cDNA fragment comprising the ORF were subcloned into the eukaryotic expression vectors; expressed in transfected cells; host or cells: COS-1 cells (pCDM8 vector, DEAE-dextran transfection); light membranes after nitrogen cavitation
Experimental: FIGS. 5A and 5B show the carboxyl methylation of ras-related GTPases by COS-1 cell membranes expressing ectopic human pcCMT. In FIG. 5A, neutrophil cytosol (CS) containing a mixture of Rho family proteins complexed with Rho-GDI (lanes 2, 3, 6, 7, 10, 11) or RhoA-GDI complexes partially purified from CS (lanes 4, 8, 12) were incubated with the methyl donor S-adenosyl-L-[methyl-^3H]methionine and light membranes derived from nitrogen cavitation of human neutrophils (lanes 1-4) or COS-1 cells transiently transfected with either human pcCMT (lanes 5-8) or vector alone (lanes 9-12). In some reactions (lanes 3, 7, 11) a competitive pcCMT inhibitor, AFC, was included. Reaction products were analyzed by SDS-PAGE and fluorography. The position of carboxyl methylated […] is indicated as is the position of protein phosphatase 2a (PP2a) that is methylated on a C-terminal leucine by an enzyme unrelated to pcCMT (Lee et al, 1993). […] Carboxyl methyltransferase activity was quantitated in membranes of COS-1 cells transfected with HL60 pcCMT using prenylcysteine analogs as defined substrates (Philips et al, 1995). […]

[2] = Prenylcysteine carboxyl methyltransferase activity of membranes, AFC as substrate; type: biochemical, human; settings: for Relative enzymatic activity: COS cell membranes, Vector Alone = 1; for Increase: relative to COS + Vector
From the text: Expression of Recombinant pcCMT: The 3.6-kb full-length HL60 pcCMT cDNA and an 852-bp cDNA fragment comprising the ORF were subcloned into the eukaryotic expression vectors pCDM8 and pcDNA3.1 (Invitrogen, Carlsbad, Calif.). Myc-tagged pcCMT was made by adding a sequence encoding the 10-amino acid epitope of c-Myc recognized by monoclonal antibody 9E10 to the C terminus of pcCMT using patch PCR and subcloning into pcDNA3.1. pcCMT tagged at the C terminus with GFP was generated by subcloning the pcCMT ORF into the expression vector pGFP-N3 (Clontech). For pcCMT enzymatic assays, COS-1 cells were grown in 10-cm dishes and transfected with pcCMT with DEAE-dextran as described (Aruffo et al, 1987). For fluorescence microscopy, exponentially growing COS-1, CHO, and NIH3T3 cells were plated the day prior to transfection at 50-60% confluence and transfected with 2 μg of DNA using LipofectAMINE (Life Technologies, Inc.), Gaithersburg, Md.) according to the manufacturer's instructions.
(§1) Prenylcysteine Carboxyl Methyltransferase Assays: COS-1 cells transfected with HL60 pcCMT or vector alone were harvested at 48 hours with 5 mM EDTA and subjected, in parallel with human neutrophils, to nitrogen cavitation and discontinuous sucrose density centrifugation as described (Philips et al, 1991). Light membranes were assayed for pcCMT activity qualitatively by S-adenosyl-L- [methyl-^3H]methionine labeling (SDS-polyacrylamide gel electrophoresis and flurography) of Rho GTPases partially purified from neutrophil cytosol and quantitatively by carboxyl methylation of N-acetyl-S-trans,trans-farnesyl-L-cysteine (AFC) (heptane partition, alkaline hydrolysis, and measurement of vapor phase [^3H]methanol) as described (Philips et al, 1995)
(§2) To determine whether the HL60 STE14 protein homolog has prenylcysteine carboxyl methyltransferase activity, the cDNA was subcloned into a mammalian expression vector PCDM8 (Invitrogen, San Diego, Calif.) and transiently overexpressed ectopically in COS-1 cells. Membranes prepared from these cells were used as a source of recombinant enzyme. Farnesylated Ras GTPases require detergent for extraction from membranes. Therefore, geranylgeranylated neutrophil cytosolic Rho accessory protein, guanine nucleotide dissociation inhibitor (GDI), were utilized as endogenous substrates in an in vitro assay (FIGS. 5A and 5B). Untransfected COS-1 cell membranes had little pcCMT activity toward Rho proteins compared with that of membranes derived from human neutrophils (FIG. 5A). Transfection with the HL60 cDNA conferred pcCMT activity toward Rho GTPases on COS-1 membranes, and this activity was blocked by the competitive pcCMT inhibitor, AFC, with an ED50 (10 μM) identical to that for endogenous neutrophil pcCMT. Carboxyl methylation of Rac2 and RhoA by HL60 pcCMT-transfected COS-1 cell membranes was enhanced by guanosine 5′-3-O-(thio)triphosphate (GTPγS) (FIG. 5B), similar to the activity observed in neutrophil membranes (Philips et al, 1993). Carboxyl methyltransferase activity was quantitated in membranes of COS-1 cells transfected with HL60 pcCMT using prenylcysteine analogs as defined substrates (Philips et al, 1995). Untransfected COS-1 cell membranes had […] (n=5) of the pcCMT specific activity of neutrophil membranes toward AFC.

human pcCMT [3] = target: T1, human pcCMT; assay: Carboxyl methylation of prenylcysteine analogs (AFC, AGGC) as defined substrates by the recombinant enzyme in COS-1 membranes; type: biochemical
Experimental: as §1, §2
The Michaelis constants of the recombinant enzyme, Km=7 μM for AFC and 0.6 μM for AGGC, were similar to those for the endogenous neutrophil enzyme (Pillinger et al, 1994). Thus, the cDNA described above encodes authentic human myeloid pcCMT.

Δste14 yeast strain = assay: ste14 complementation, patch mating test; type: cell-based, S. cerevisiae; settings: cDNA expressed from a plasmid
Experimental: S. cerevisiae Strains, Growth, and ste14 Complementation: Complete (YEPD), synthetic (SD), and synthetic dropout media were prepared as described previously (Michaelis et al, 1988), except that dropout medium lacked cysteine. All experiments were performed at 30° C. Yeast transformations were carried out by either the lithium acetate method (Ito et al, 1983) or the Elble method (Elble, 1992). The ste14 deletion strains used are SM1188 (MATαΔste14-3:: TRP1 trp1 leu2 ura3 his4 can1) and SM1639 (MATαΔste14-4:: URA3 trp1 leu2 his4 can1) (Sapperstein et al, 1994). Plasmid expression of STE14 protein was accomplished by pSM1237 (CEN URA3 STE14). Human pcCMT was expressed in yeast by subcloning the HL60 pcCMT ORF into the BamHI SalI sites of the yeast expression plasmid pG1 (2μ TRP1) that utilizes a GPD promoter and a PGK transcription terminator and polyadenylation signal (Schena et al, 1991). The resulting construct was designated pG1-hCMT (2μ TRP1 hCMT). Patch mating tests were carried out essentially as described previously (Michaelis et al, 1988). briefly, patches of MATα cells grown on selective media were replica plated onto a lawn of the […], SM1068 (lys1), that had been spread on an SD plate. […]
To determine whether human pcCMT could substitute in vivo for the S. cerevisiae pcCMT, STE14 protein, a complementation analysis was done using mating as a biological readout. […]

T1 sequence (O60725 whole entry, the tested form may be a part): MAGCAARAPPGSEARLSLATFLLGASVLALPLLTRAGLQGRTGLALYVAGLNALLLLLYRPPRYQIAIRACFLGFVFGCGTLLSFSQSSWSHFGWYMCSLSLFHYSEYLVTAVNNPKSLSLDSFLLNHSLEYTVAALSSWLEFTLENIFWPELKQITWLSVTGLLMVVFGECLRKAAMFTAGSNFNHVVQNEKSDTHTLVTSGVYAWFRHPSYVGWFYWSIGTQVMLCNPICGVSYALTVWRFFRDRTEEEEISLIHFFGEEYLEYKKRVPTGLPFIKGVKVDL

Effect on carboxyl methylation of Rac2 and RhoA (human pcCMT [1]): enhanced
Compound: Nc1nc2c(ncn2[C@@H]2O[C@H](COP(=O)(O)OP(=O)(O)OP(O)(O)=S)[C@@H](O)[C@H]2O)c(=O)[nH]1 [GTPγS, guanosine 5′-3-O-(thio)triphosphate]

Compound: PcCMT-Myc: pcCMT with the 10-amino acid c-Myc epitope added at the C terminus
Relative enzymatic activity ([2]; Experiment #1): 11.1

Increase in carboxyl methylation of the substrate on pcCMT transfection (human pcCMT [3]; n=2): 18 fold
Km (human pcCMT [3]; recombinant enzyme, read-out: Michaelis constant Km): 0.6 µM
Compound: CC(=O)N[C@@H](CSC/C=C(\C)CC/C=C(\C)CC/C=C(\C)CCC=C(C)C)C(=O)O (stereo in doubt) [AGGC, N-acetyl-S-all-trans-geranylgeranyl-L-cysteine]

Compound: HL60 pcCMT: human prenylcysteine carboxyl methyltransferase, 284 amino acid protein of SEQ ID NO:5, ectopically expressed in COS-1 cell membranes
Relative enzymatic activity ([2]; Experiment #1): 14.1
Relative enzymatic activity ([2]; Experiment #2): 5.4
Relative enzymatic activity ([2]; Experiment #3): 19.6
Specific AFC carboxyl methyltransferase activity ([2]; transfected COS-1 membranes, n=5, p<0.0005): 74.5 ± 6.8 pmol/mg/min
Increase in specific AFC carboxyl methyltransferase activity ([2]; transfection of COS-1 cells): 18-53 fold
Restoration of mating phenotype (Δste14 yeast strain): partially restored the mating phenotype

Activity ([2]; Experiment 1): 62.7 pmol/mg/min
Increase ([2]; Experiment 1): 12 fold
Activity ([2]; Experiment 2): 17.7 pmol/mg/min
Increase ([2]; Experiment 2): 9 fold
Activity ([2]; Experiment 3): 35.3 pmol/mg/min
Increase ([2]; Experiment 3): 21 fold
Compound: COS + pcCMT cDNA: membranes of COS cells transfected with pCDM8 + pcCMT full-length cDNA

Activity ([2]; Experiment 2): 84.6 pmol/mg/min
Increase ([2]; Experiment 2): 45 fold
Activity ([2]; Experiment 3): 90.7 pmol/mg/min
Increase ([2]; Experiment 3): 53 fold
Compound: COS + pcCMT ORF: membranes of COS cells transfected with pCDM8 + pcCMT ORF only

Compound: pcCMT-FLAG: pcCMT with the 8-amino acid FLAG epitope as C-terminal extension
Relative enzymatic activity ([2]; Experiment #2): 5.45
Relative enzymatic activity ([2]; Experiment #3): 18.5
